The target of the assay is alkaline phosphatase, placental type (human). In words: inhibitors of placental alkaline phosphatase – biochemical, human PLAP isozyme, set 2, selectivity assay for mouse IAP inhibitor project, SAR follow-up (AID 588641). The following applies: purified human placental alkaline phosphatase, enzyme activity.

Active and inactive are the calls of the source. How the calls were made is not given here.

On to `O=C(N/N=C/c1ccccc1F)c1ccccc1OCc1ccccc1`, for which the IC50 (as a rule, the concentration that inhibits the measured activity by half) was > 100 µM (inactive).
As for `Cc1ccc(C)c(NC(=O)CCNS(=O)(=O)c2ccc3ccccc3c2)c1`, the IC50 was > 100 µM (inactive).
For `COc1ccc(NC(=O)CCCNS(=O)(=O)c2ccc3[nH]c(=O)oc3c2)c(OC)c1` the value was > 100 µM (inactive); for `CCOc1ccc(CNC(=O)C2CCCN(S(=O)(=O)c3ccc4[nH]c(=O)oc4c3)C2)cc1OC` (configuration not stated), > 100 µM (inactive).
For the molecule `COc1ccc(NC(=O)CCNS(=O)(=O)c2ccc3c(c2)CCC3)cc1OC`, the IC50 was > 100 µM (inactive).
With `COc1ccc(NC(=O)CCNS(=O)(=O)c2ccc3ccccc3c2)cc1OC` the figure was > 100 µM (inactive); with `COc1ccc(NC(=O)CCNS(=O)(=O)c2ccc3[nH]c(=O)oc3c2)cc1OC`, > 100 µM (inactive); with `C/C(=N\NC(=O)c1cc(O)c(O)c(O)c1)c1ccc(O)cc1O`, > 100 µM (inactive).
As to `COc1ccc(NS(=O)(=O)c2ccc3[nH]c(=O)oc3c2)cc1OC`, the IC50 is > 100 µM (inactive).
For `COc1ccc(CCNC(=O)CCCNS(=O)(=O)c2ccc3[nH]c(=O)oc3c2)cc1` the value was > 100 µM (inactive).
For the molecule `O=c1[nH]c2ccc(S(=O)(=O)NCCc3ccc4c(c3)OCO4)cc2o1`, the IC50 is > 100 µM (inactive).
With `O=C(CCCNS(=O)(=O)c1ccc2[nH]c(=O)oc2c1)NCCc1ccc(O)cc1` the figure was > 100 µM (inactive); with `COc1ccc(OC)c(NC(=O)CCNS(=O)(=O)c2ccc3c(c2)oc(=O)n3C)c1`, > 100 µM (inactive).
For `N#Cc1cccc(NC(=O)CNS(=O)(=O)c2ccc3[nH]c(=O)oc3c2)c1` the value was > 100 µM (inactive); for `COc1ccc(/C=N\NC(=O)c2cc(O)c(O)c(O)c2)cc1CN1CCN(c2ccc(F)cc2)CC1`, > 100 µM (inactive).
With `COc1ccc(CNC(=O)CCNS(=O)(=O)c2ccc3[nH]c(=O)oc3c2)cc1` the figure was > 100 µM (inactive); with `COc1ccc(CNC(=O)CCCNS(=O)(=O)c2ccc3[nH]c(=O)oc3c2)c(OC)c1`, > 100 µM (inactive).
In the case of `N#Cc1cccc(CNC(=O)CCNS(=O)(=O)c2ccc3[nH]c(=O)oc3c2)c1`, the IC50 was > 100 µM (inactive).
For `Cc1ccc(C)c(NC(=O)CCNS(=O)(=O)c2ccc3c(c2)CCC3)c1` the value was > 100 µM (inactive).
With `O=C(CCCNS(=O)(=O)c1ccc2[nH]c(=O)oc2c1)NCc1cccc(F)c1` the figure was > 100 µM (inactive); with `COc1cccc(/C=N/NC(=O)c2cc(O)c(O)c(O)c2)c1O`, > 100 µM (inactive).
With `O=C(N/N=C/c1ccccc1C(F)(F)F)c1cc(O)c(O)c(O)c1` the figure was > 100 µM (inactive).
Turning to `O=C(NCc1ccc(F)cc1)C1CCCN(S(=O)(=O)c2ccc3[nH]c(=O)oc3c2)C1` (configuration not stated), the IC50 is > 100 µM (inactive).
With `Cc1ccc(C)c(NS(=O)(=O)c2ccc3[nH]c(=O)oc3c2)c1` the figure was > 100 µM (inactive).
Take `CN(C)c1ccc(CNC(=O)C2CCCN(S(=O)(=O)c3ccc4[nH]c(=O)oc4c3)C2)cc1` (configuration not stated): the IC50 was > 100 µM (inactive).
With `O=C(CCNS(=O)(=O)c1ccc2[nH]c(=O)oc2c1)NCc1ccc(O)c(O)c1` the figure was > 100 µM (inactive); with `O=C(N/N=C/c1ccccc1F)c1ccc(O)cc1O`, > 100 µM (inactive); with `Cc1ccc(NC(=O)CCNS(=O)(=O)c2ccc3[nH]c(=O)oc3c2)cc1C`, > 100 µM (inactive).
With `Cc1ccc(C)c(NC(=O)CCNS(=O)(=O)c2ccc3[nH]c(=O)oc3c2)c1` the figure was > 100 µM (inactive); with `COc1ccc(CNC(=O)CNS(=O)(=O)c2ccc3[nH]c(=O)oc3c2)cc1`, > 100 µM (inactive).
`O=C(CCS(=O)(=O)Nc1ccc2[nH]c(=O)oc2c1)NCc1cccc(Cl)c1`: the IC50 is > 100 µM (inactive).
On to `O=C(CCNS(=O)(=O)c1ccc2[nH]c(=O)oc2c1)NCc1ccc2c(c1)OCO2`, for which the IC50 was > 100 µM (inactive).
Take `O=C(CCNS(=O)(=O)c1ccc2[nH]c(=O)oc2c1)NCc1cccc(C(F)(F)F)c1`: the IC50 was > 100 µM (inactive).
With `O=C(CCNS(=O)(=O)c1ccc2[nH]c(=O)oc2c1)Nc1ccc2c(c1)OCO2`, the IC50 is > 100 µM (inactive).
With `O=C(NN=Cc1ccccc1F)c1ccc(O)cc1` the figure was > 100 µM (inactive); with `N#Cc1ccc(NS(=O)(=O)c2ccc3[nH]c(=O)oc3c2)cc1`, > 100 µM (inactive).
Consider `COc1cc(/C=N/NC(=O)c2cc(O)c(O)c(O)c2)ccc1O`, for which the IC50 was > 100 µM (inactive).
With `O=C(N/N=C/c1ccc(Br)cc1F)c1cc(O)ccc1O`, the IC50 was > 100 µM (inactive).
In the case of `O=c1[nH]c2ccc(S(=O)(=O)Nc3ccc4c(c3)OCO4)cc2o1`, the IC50 is > 100 µM (inactive).
For `COc1ccc(CNC(=O)CCNS(=O)(=O)c2ccc3ccccc3c2)c(OC)c1`, the IC50 was > 100 µM (inactive).
Take `CCOc1cc(C(=O)N/N=C/c2ccccc2F)cc(OCC)c1OCC`: the IC50 is > 100 µM (inactive).
As for `O=C(N/N=C/c1c(F)cccc1Cl)c1ccc(O)cc1`, the IC50 was > 100 µM (inactive).
For `COc1ccc(CNC(=O)CNS(=O)(=O)c2ccc3[nH]c(=O)oc3c2)c(OC)c1` the value was > 100 µM (inactive); for `O=C(CCCNS(=O)(=O)c1ccc2[nH]c(=O)oc2c1)NCc1ccccc1Cl`, > 100 µM (inactive).
`CC(C)c1ccc(/C=N/NC(=O)c2cc(O)c(O)c(O)c2)cc1`: the IC50 is > 100 µM (inactive).
Consider `CC(C)c1ccc(NC(=O)CCNS(=O)(=O)c2ccc3c(c2)oc(=O)n3C)cc1`, for which the IC50 was > 100 µM (inactive).
With `CCOc1cc(C(=O)N/N=C/c2c(F)cccc2Cl)cc(OCC)c1OCC`, the IC50 was > 100 µM (inactive).
With `O=C(N/N=C/c1cc(Br)ccc1F)c1ccc(O)cc1` the figure was > 100 µM (inactive); with `CC(C)Oc1ccc(CNC(=O)C2CCCN(S(=O)(=O)c3ccc4[nH]c(=O)oc4c3)C2)cc1` (configuration not stated), > 100 µM (inactive).
Take `COc1cccc(CNC(=O)CCNS(=O)(=O)c2ccc3[nH]c(=O)oc3c2)c1`: the IC50 is > 100 µM (inactive).
With `O=C(CCNS(=O)(=O)c1ccc2[nH]c(=O)oc2c1)NCc1ccccc1Cl` the figure was > 100 µM (inactive); with `O=C(CCNS(=O)(=O)c1ccc2[nH]c(=O)oc2c1)NCc1ccccc1F`, > 100 µM (inactive).
Consider `O=C(N/N=C/c1ccc(F)c(Br)c1)c1cc(O)c(O)c(O)c1`, for which the IC50 was > 100 µM (inactive).
Turning to `O=C(CCNS(=O)(=O)c1ccc2c(c1)CCC2)NCCc1ccc2c(c1)OCO2`, the IC50 was > 100 µM (inactive).
For `O=C(N/N=C/c1c(Cl)cccc1Cl)c1cc(O)c(O)c(O)c1` the value was > 100 µM (inactive).
For `O=C(N/N=C/c1ccccc1F)c1ccc(O)cc1` the value was > 100 µM (inactive).
With `CCc1ccc(NC(=O)CCNS(=O)(=O)c2ccc3c(c2)oc(=O)n3C)cc1` the figure was > 100 µM (inactive); with `O=C(CCNS(=O)(=O)c1ccc2[nH]c(=O)oc2c1)NCc1ccc(F)cc1`, > 100 µM (inactive).
Consider `COc1cccc(CNS(=O)(=O)c2ccc3[nH]c(=O)oc3c2)c1`, for which the IC50 is > 100 µM (inactive).
For `O=C(CCS(=O)(=O)Nc1ccc2[nH]c(=O)oc2c1)NCc1ccccc1Cl` the value was > 100 µM (inactive); for `CC(C)c1ccc(NC(=O)C2CCCN(S(=O)(=O)c3ccc4c(c3)oc(=O)n4C)C2)cc1` (configuration not stated), > 100 µM (inactive).
Regarding `O=C(CCCNS(=O)(=O)c1ccc2[nH]c(=O)oc2c1)NCc1ccc2c(c1)OCO2`, the IC50 was > 100 µM (inactive).
`COc1ccc(CNS(=O)(=O)c2ccc3[nH]c(=O)oc3c2)cc1`: the IC50 was > 100 µM (inactive).
With `O=c1[nH]c2ccc(S(=O)(=O)NCc3ccc4c(c3)OCO4)cc2o1`, the IC50 is > 100 µM (inactive).
With `O=C(N/N=C/c1ccccc1Cl)c1cc(O)c(O)c(O)c1` the figure was > 100 µM (inactive).
With `COc1ccc(C(=O)N/N=C/c2c(F)cccc2Cl)cc1OC` the figure was > 100 µM (inactive).
Turning to `O=C(CCNS(=O)(=O)c1ccc2[nH]c(=O)oc2c1)NCc1cccc(Cl)c1`, the IC50 was > 100 µM (inactive).
Turning to `Cc1ccc(C)c(NC(=O)C2CCCN(S(=O)(=O)c3ccc4c(c3)oc(=O)n4C)C2)c1` (configuration not stated), the IC50 was > 100 µM (inactive).
Turning to `COc1ccccc1CNC(=O)CCNS(=O)(=O)c1ccc2[nH]c(=O)oc2c1`, the IC50 is > 100 µM (inactive).
As for `CSc1cccc(NC(=O)CCNS(=O)(=O)c2ccc3c(c2)oc(=O)n3C)c1`, the IC50 is > 100 µM (inactive).
In the case of `COc1ccc(OC)c(NC(=O)C2CCCN(S(=O)(=O)c3ccc4c(c3)oc(=O)n4C)C2)c1` (configuration not stated), the IC50 is > 100 µM (inactive).
With `Cc1ccc(NC(=O)CCNS(=O)(=O)c2ccc3c(c2)oc(=O)n3C)cc1`, the IC50 was > 100 µM (inactive).
For the molecule `O=C(N/N=C/c1c(F)cccc1Cl)c1ccc(O)cc1O`, the IC50 was > 100 µM (inactive).
For `COc1ccc(CNS(=O)(=O)c2ccc3[nH]c(=O)oc3c2)c(OC)c1` the value was > 100 µM (inactive); for `Cc1ccc(C)c(NC(=O)CNS(=O)(=O)c2ccc3[nH]c(=O)oc3c2)c1`, > 100 µM (inactive); for `COc1cccc(CNC(=O)CNS(=O)(=O)c2ccc3[nH]c(=O)oc3c2)c1`, > 100 µM (inactive).
As for `Cc1ccc(NC(=O)CCNS(=O)(=O)c2ccc3c(c2)oc(=O)n3C)cc1C`, the IC50 is > 100 µM (inactive).
Take `COc1ccc(/C=N/NC(=O)c2cc(O)c(O)c(O)c2)cc1OC`: the IC50 was > 100 µM (inactive).
`COc1ccc(/C=N/NC(=O)c2cc(O)c(O)c(O)c2)c(OC)c1`: the IC50 is > 100 µM (inactive).
As to `O=C(CCNS(=O)(=O)c1ccc2ccccc2c1)NCCc1ccc2c(c1)OCO2`, the IC50 is > 100 µM (inactive).
For `O=C(CCNS(=O)(=O)c1ccc2[nH]c(=O)oc2c1)NCc1ccc(C(F)(F)F)cc1` the value was > 100 µM (inactive).
With `O=C(CCNS(=O)(=O)c1ccc2[nH]c(=O)oc2c1)NCc1ccccc1`, the IC50 is > 100 µM (inactive).

(Values after PubChem BioAssay AID588641 (Sanford-Burnham Center for Chemical Genomics, 2011).)
